Reference: patent US4443436A, “C-20-Modified macrolide derivatives of the macrolide antibiotics tylosin, desmycosin, macrocin, and lactenocin” (Eli Lilly and Company, priority 1982, dated 1984)
Converted amounts (≈) assume the structure as drawn. “And” between values parts separate entries of the source, which are not always exact repeats. Equal values may be shown once. Read-outs that look alike come from different tables or passages of the source.

Experiments:
Staphylococcus aureus = assay: MIC, broth-dilution microtiter test, Staphylococcus aureus; assay type: cell-based; settings: broth-dilution microtiter
Description: (§1) The MIC's in Table X were obtained using conventional broth-dilution microtiter tests.

Mycoplasma gallisepticum [1] = assay: Antimycoplasmal activity in chicks infected with Mycoplasma gallisepticum; assay type: in vivo, two- to three-day-old chicks; settings: gavage five times, equivalent to 0.5 g/gal; for Number with Antibodies/Number Tested: antibodies to M. gallisepticum; for Number with Antibodies/Number Tested / Number with Air-Sac Lesions/Number Treated: 21 days post-infection
Method: In these tests infections were induced in chicks by injecting 0.2 ml of a broth culture of M. gallisepticum into the abdominal air sac of two- to three-day-old chicks. The compounds were administered by gavage five times at a dose equivalent to 0.5 g/gal (on the day of challenge once prior to and once following the challenge, two times on the next day and once on the third day). Twenty-one days post-infection, the chicks were weighed, a blood sample was taken, and the chicks were sacrificed. The presence or absence of air-sac lesions was recorded.

Streptococcus bovis 80 = assay: MIC, broth-dilution microtiter test, Streptococcus bovis 80; assay type: cell-based; settings: Streptococcus bovis 80, broth-dilution microtiter
Description: as §1

[2] = system: Pasteurella multocida 17E; assay: MIC, broth-dilution microtiter test, Pasteurella multocida 17E; assay type: cell-based; settings: Pasteurella multocida 17E; bovine isolate; broth-dilution microtiter; read-out: MIC
Description: as §1

[3] = system: Pasteurella hemolytica 22C; assay: MIC, broth-dilution microtiter test, Pasteurella hemolytica 22C; assay type: cell-based; settings: Pasteurella hemolytica 22C, broth-dilution microtiter
Description: as §1

[4] = system: Streptococcus pneumoniae Park I; assay: microbe, parasite or virus in culture; assay type: cell-based
Mycoplasma hyorhinis = assay: MIC, broth-dilution microtiter test, Mycoplasma hyorhinis; assay type: cell-based
Description: as §1

[5] = system: Staphylococcus aureus X400; assay: MIC, standard agar-dilution assay, Staphylococcus aureus X400; assay type: cell-based
[6] = system: Streptococcus pyogenes C203; assay: In vivo protection of mice experimentally infected with S. pyogenes C203; settings: mice, doses given 1 and 4 hours post-infection; for ED50: Streptococcus pyogenes
Method: The C-20 modified derivatives of this invention have shown in vivo antimicrobial activity against experimentally-induced infections in laboratory animals. When two doses of test compound were administered to mice experimentally infected with S. pyogenes C203, the activity observed was measured as an ED50 value [effective dose in mg/kg to protect 50% of the test animals: see Warren Wick, et al., J. Bacteriol. 81, 233-235 (1961)].

[7] = system: Streptococcus pyogenes C203; assay: MIC, standard agar-dilution assay, Streptococcus pyogenes C203; assay type: cell-based
[8] = system: Pasteurella multocida 60A; assay: MIC, broth-dilution microtiter test, Pasteurella multocida 60A; assay type: cell-based; settings: Pasteurella multocida 60A; avian isolate; broth-dilution microtiter; read-out: MIC
Description: as §1

Streptococcus Group 9960 = assay: MIC, standard agar-dilution assay, Streptococcus Group 9960; assay type: cell-based
Pasteurella multocida [9] = assay: Subcutaneous treatment of Pasteurella multocida-infected chicks; assay type: in vivo, one-day-old chicks; settings: 30 mg/kg × 2, 1 and 4 hours post-challenge
Method: Many of the C-20 modified derivatives of this invention have also shown in vivo antibacterial activity against infections induced by gram-negative bacteria. Tables XII and XIII summarize the results of tests in which illustrative compounds were evaluated against Pasteurella infection in one-day-old chicks. The compounds were administered parenterally or orally after challenge of the chicks with Pasteurella multocida (0.1 ml of a 10^-4 dilution of a twenty-hour tryptose broth culture of an avian P. multocida given subcutaneously). In these tests, unless indicated otherwise, all non-medicated infected chicks died within 24 hours of Pasteurella challenge. In the tests summarized in Table XII the compounds were administered by subcutaneous injection at a dosage of 30 mg/kg, 1 and 4 hours post-challenge of the chicks with P. multocida. In the test summarized in Table XIII the compounds were administered by gavage at 1 and 5 hours post-challenge of the chicks with P. multocida.

Mycoplasma gallisepticum [10] = assay: MIC, broth-dilution microtiter test, Mycoplasma gallisepticum; assay type: cell-based; settings: Mycoplasma gallisepticum, broth-dilution microtiter
Description: as §1

[11] = system: Staphylococcus aureus V41; assay: MIC, standard agar-dilution assay, Staphylococcus aureus V41; assay type: cell-based
Mycoplasma synoviae = assay: MIC, broth-dilution microtiter test, Mycoplasma synoviae; assay type: cell-based; settings: Mycoplasmopsis synoviae; Mycoplasma synoviae; broth-dilution microtiter; read-out: MIC
Description: as §1

[12] = system: Streptococcus Group D X66; assay: MIC, standard agar-dilution assay, Streptococcus Group D X66; assay type: cell-based
Pasteurella multocida [13] = assay: Oral (gavage) treatment of Pasteurella multocida-infected chicks; assay type: in vivo, one-day-old chicks
Summary of the method: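 One-day-old chicks challenged subcutaneously with 0.1 ml of a 10^-4 dilution of a 20-hour tryptose broth culture of avian P. multocida. Compounds given by subcutaneous injection at 30 mg/kg 1 and 4 hours post-challenge, or by oral gavage 1 and 5 hours post-challenge.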

Mycoplasma hyopneumoniae = assay: MIC, broth-dilution microtiter test, Mycoplasma hyopneumoniae; assay type: cell-based; settings: Mesomycoplasma hyopneumoniae; Mycoplasma hyopneumoniae; broth-dilution microtiter; read-out: MIC
Description: as §1

[14] = system: Staphylococcus aureus S13E; assay: MIC, standard agar-dilution assay, Staphylococcus aureus S13E; assay type: cell-based
[15] = system: Staphylococcus epidermidis EPI1; assay: MIC, standard agar-dilution assay, Staphylococcus epidermidis EPI1; assay type: cell-based
[16] = system: Staphylococcus aureus X1.1; assay: MIC, standard agar-dilution assay, Staphylococcus aureus X1.1; assay type: cell-based
[17] = system: Haemophilus influenzae R252; assay: MIC, standard agar-dilution assay, Haemophilus influenzae R252; assay type: cell-based
[18] = system: Haemophilus influenzae Holt; assay: MIC, standard agar-dilution assay, Haemophilus influenzae Holt; assay type: cell-based
[19] = system: Staphylococcus epidermidis EPI2; assay: MIC, standard agar-dilution assay, Staphylococcus epidermidis EPI2; assay type: cell-based; settings: Staphylococcus epidermidis EPI2; agar dilution; read-out: MIC
[20] = Streptococcus equinus, read-out: MIC
[21] = C203, sc, subcutaneous, read-out: ED50, Subcutaneous
[22] = C203, oral, read-out: ED50, Oral
[23] = Mycoplasmoides gallisepticum, read-out: MIC

Row | Compound | MIC (Staphylococcus aureus; read-out: MIC) [µg/mL] | Number with Antibodies/Number Tested (Mycoplasma gallisepticum [1]) | Mortality (Mycoplasma gallisepticum [1]) | Number with Air-Sac Lesions/Number Treated (Mycoplasma gallisepticum [1]) | MIC (Streptococcus bovis 80; [20]) [µg/mL] | MIC [2] [µg/mL] | MIC ([3]; read-out: MIC) [µg/mL] | MIC (Mycoplasma hyorhinis; Mycoplasma) [µg/mL] | MIC ([5]; Staphylococcus aureus, X400) [µg/mL] | ED50 [6, 21] [mg/kg] | ED50 [6, 22] [mg/kg] | MIC [8] [µg/mL] | Number of Deaths/Number Treated (Pasteurella multocida [9]) | MIC (Mycoplasma gallisepticum [10]; [23]) [µg/mL] | MIC ([11]; Staphylococcus aureus, V41) [µg/mL] | MIC (Mycoplasma synoviae) [µg/mL] | MIC (Mycoplasma hyopneumoniae) [µg/mL] | MIC ([14]; Staphylococcus aureus, S13E) [µg/mL] | MIC ([16]; Staphylococcus aureus, X1.1) [µg/mL] | also measured
1 | CCC1OC(=O)CC(O)C(C)C(OC2OC(C)C(O)C(N(C)C)C2O)C(CCSc2nnnn2C)CC(C)C(=O)C=CC(C)=CC1COC1OC(C)C(O)C(OC)C1OC (stereo not drawn) [Compound 24, 20-DH-DO-20-[(1-N-Methyltetrazol-5-yl)thio]desmycosin] | 0.78 (≈ 0.894 µM) | 10/10 | 0/10 | 6/10 | 12.5 (≈ 14.3 µM) | 12.5 (≈ 14.3 µM) | 12.5 (≈ 14.3 µM) | 50 (≈ 57.3 µM) | 1 (≈ 1.15 µM) | 2.4 | 50 | 12.5 (≈ 14.3 µM) | 2/10 and 0/10 | 1.56 (≈ 1.79 µM) | 0.5 (≈ 0.573 µM) | 0.78 (≈ 0.894 µM) | 12.5 (≈ 14.3 µM) | 0.5 (≈ 0.573 µM) | 0.5 (≈ 0.573 µM) | MIC ([4]; Streptococcus pneumoniae): 2 µg/mL (≈ 2.29 µM); MIC ([7]; Streptococcus pyogenes C203, agar dilution, read-out: MIC): 0.25 µg/mL (≈ 0.287 µM); MIC (Streptococcus Group 9960; GROUP9960, Streptococcus Group 9960, agar dilution, read-out: MIC): 32 µg/mL (≈ 36.7 µM); MIC ([12]; Streptococcus Group D X66, agar dilution, read-out: MIC): 16 µg/mL (≈ 18.3 µM); Number of Deaths/Number tested (Pasteurella multocida [13]; 1.0 g/gal equivalent): 2/9; Number of Deaths/Number tested (Pasteurella multocida [13]; 2.0 g/gal equivalent): 1/9; MIC ([15]; Staphylococcus epidermidis EPI1, agar dilution, read-out: MIC): 0.25 µg/mL (≈ 0.287 µM)
2 | CCC1OC(=O)CC(O)C(C)C(OC2OC(C)C(O)C(N(C)C)C2O)C(CCOC(=O)COc2ccccc2)CC(C)C(=O)C=CC(C)=CC1COC1OC(C)C(O)C(OC)C1OC (stereo not drawn) [Compound 26, 20-DH-20-O-(Phenoxyacetyl)desmycosin] | 0.39 (≈ 0.429 µM) | 7/9 | 1/10 | 5/10 | 1.56 (≈ 1.72 µM) | 6.25 (≈ 6.88 µM) | 12.5 (≈ 13.8 µM) | 50 (≈ 55.1 µM) | 0.5 (≈ 0.551 µM) | 2.4 | > 25 | 6.25 (≈ 6.88 µM) | 8/10 | < 0.05 | 0.25 (≈ 0.275 µM) | 1.56 (≈ 1.72 µM) | 0.78 (≈ 0.859 µM) | 0.25 (≈ 0.275 µM) | 0.25 (≈ 0.275 µM) | MIC ([17]; Haemophilus influenzae, R252): 8 µg/mL (≈ 8.81 µM); MIC ([4]; Streptococcus pneumoniae Park I, agar dilution, read-out: MIC): 0.12 µg/mL (≈ 0.132 µM); MIC ([18]; Haemophilus influenzae): 8 µg/mL (≈ 8.81 µM); MIC ([7]; Streptococcus pyogenes, C203): 0.12 µg/mL (≈ 0.132 µM); MIC (Streptococcus Group 9960; GROUP9960): 0.5 µg/mL (≈ 0.551 µM); MIC [12]: 0.5 µg/mL (≈ 0.551 µM); MIC ([15]; Staphylococcus epidermidis, EPI1): 0.25 µg/mL (≈ 0.275 µM); MIC [19]: 0.12 µg/mL (≈ 0.132 µM)
3 | CCC1OC(=O)CC(O)C(C)C(OC2OC(C)C(O)C(N(C)C)C2O)C(CCN=[N+]=[N-])CC(C)C(=O)C=CC(C)=CC1COC1OC(C)C(O)C(OC)C1OC (stereo not drawn) [Compound 44, 20-DH-DO-20-Azidodesmycosin] |  | 9/10 | 0/10 | 7/10 |  |  |  |  |  |  |  |  | 9/10 |  |  |  |  |  |  | MIC ([17]; Haemophilus influenzae R252, ampicillin-resistant strain, agar dilution): 4 µg/mL (≈ 5.01 µM); MIC (Staphylococcus aureus): 0.39 µg/mL (≈ 0.488 µM); MIC (Streptococcus bovis 80): 6.25 µg/mL (≈ 7.82 µM); MIC [3]: 12.5 µg/mL (≈ 15.6 µM); MIC ([4]; Streptococcus pneumoniae Park I, agar dilution): 2 µg/mL (≈ 2.5 µM); MIC (Mycoplasma hyorhinis; Mycoplasma hyorhinis, broth-dilution microtiter): 50 µg/mL (≈ 62.6 µM); MIC ([5]; Staphylococcus aureus X400, methicillin-resistant strain, agar dilution): 0.25 µg/mL (≈ 0.313 µM); ED50, Oral ([6]; oral): 13 mg/kg × 2; ED50, Subcutaneous ([6]; subcutaneous): 3.8 mg/kg × 2; MIC ([18]; Haemophilus influenzae Holt, ampicillin-sensitive strain, agar dilution): 16 µg/mL (≈ 20 µM); MIC ([7]; Streptococcus pyogenes C203, agar dilution): 0.25 µg/mL (≈ 0.313 µM); MIC (Streptococcus Group 9960; Streptococcus Group 9960, agar dilution): 8 µg/mL (≈ 10 µM); MIC (Mycoplasma gallisepticum [10]): 0.39 µg/mL (≈ 0.488 µM); MIC ([11]; Staphylococcus aureus V41, penicillin-resistant strain, agar dilution): 0.12 µg/mL (≈ 0.15 µM); MIC ([12]; Streptococcus Group D X66, agar dilution): 4 µg/mL (≈ 5.01 µM); MIC ([14]; Staphylococcus aureus S13E, agar dilution): 0.12 µg/mL (≈ 0.15 µM); MIC ([15]; Staphylococcus epidermidis EPI1, agar dilution): 0.12 µg/mL (≈ 0.15 µM); MIC ([16]; Staphylococcus aureus X1.1, agar dilution): 0.12 µg/mL (≈ 0.15 µM)
